Reference: PubChem BioAssay AID256 (DTP/NCI, 2004)
Inconclusive results and toxic doses are left out. Rule for the calls: active = survival T/C of 150% or more; inactive = T/C below 125% in these data.

System: CD2F1 mice, L1210 leukemia ip, survival T/C
Experiment: NCI In Vivo Anticancer Drug Screen. Data for tumor model L1210 Leukemia (intraperitoneal) in CD2F1 (CDF1) mice
Details: higher = longer survival
Method in brief: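 Each value reflects a quotient of treated over vehicle control outcomes in mice with a transplanted tumor.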

[1] = endpoint: mean survival time, dose: 12.5 mg/kg/injection, schedule: Q01DX005 (ip), vehicle: distilled water + Tween-80
[2] = endpoint: mean survival time, dose: 25.0 mg/kg/injection, schedule: Q01DX005 (ip), vehicle: distilled water + Tween-80
[3] = endpoint: mean survival time, dose: 50.0 mg/kg/injection, schedule: Q01DX005 (ip), vehicle: distilled water + Tween-80
[4] = endpoint: mean survival time, dose: 100.0 mg/kg/injection, schedule: Q01DX005 (ip), vehicle: distilled water + Tween-80
[5] = endpoint: mean survival time, dose: 200.0 mg/kg/injection, schedule: Q01DX005 (ip), vehicle: distilled water + Tween-80
[6] = endpoint: mean survival time, dose: 100.0 mg/kg/injection, schedule: Q04DX002 (ip), vehicle: saline with Tween-80
[7] = endpoint: mean survival time, dose: 200.0 mg/kg/injection, schedule: Q04DX002 (ip), vehicle: saline with Tween-80
[8] = endpoint: mean survival time, dose: 400.0 mg/kg/injection, schedule: Q04DX002 (ip), vehicle: saline with Tween-80
[9] = endpoint: mean survival time, dose: 100.0 mg/kg/injection, schedule: Q04DX003 (ip), vehicle: saline with Tween-80
[10] = endpoint: mean survival time, dose: 100.0 mg/kg/injection, schedule: Q01DX001 (ip), vehicle: saline with Tween-80
[11] = endpoint: mean survival time, dose: 200.0 mg/kg/injection, schedule: Q01DX001 (ip), vehicle: saline with Tween-80
[12] = endpoint: mean survival time, dose: 400.0 mg/kg/injection, schedule: Q01DX001 (ip), vehicle: saline with Tween-80

Measured: T/C

CC(=O)OC1C(C)OC(n2ncc(=O)[nH]c2=O)C(OC(C)=O)C1OC(C)=O (configuration not stated)
inactive: [1] 103 % of control | [2] 100 % of control | [3] 103 % of control | [4] 103 % of control | [5] 107 % of control

COc1ccccc1-n1c(C)nc2c(cnn2C2OC(CO)C(O)C2O)c1=O (configuration not stated)
inactive: endpoint: mean survival time, dose: 12.5 mg/kg/injection, schedule: Q01DX005 (ip), vehicle: saline 107 % of control | endpoint: mean survival time, dose: 25.0 mg/kg/injection, schedule: Q01DX005 (ip), vehicle: saline 101 % of control | endpoint: mean survival time, dose: 50.0 mg/kg/injection, schedule: Q01DX005 (ip), vehicle: saline 101 % of control | endpoint: mean survival time, dose: 100.0 mg/kg/injection, schedule: Q01DX005 (ip), vehicle: saline 98 % of control | endpoint: mean survival time, dose: 200.0 mg/kg/injection, schedule: Q01DX005 (ip), vehicle: saline 101 % of control

CCOC(=O)Nc1cc(N)c2nc(CN(C)c3ccccc3)cnc2n1
inactive: endpoint: mean survival time, dose: 100.0 mg/kg/injection, schedule: Q01DX001 (ip), vehicle: other 91 % of control | endpoint: mean survival time, dose: 200.0 mg/kg/injection, schedule: Q01DX001 (ip), vehicle: other 94 % of control | endpoint: mean survival time, dose: 400.0 mg/kg/injection, schedule: Q01DX001 (ip), vehicle: other 91 % of control

O=C1C(Cl)=C(c2ccccc2)C(OC2(c3ccccc3)C(Cl)C(=O)C(Cl)C2c2ccccc2)(c2ccccc2)C1Cl (configuration not stated)
inactive: [6] 96 % of control | [7] 101 % of control | [8] 96 % of control

CCCC(=O)c1cc(O)c(O)cc1O
inactive: endpoint: mean survival time, dose: 12.5 mg/kg/injection, schedule: Q01DX009 (ip), vehicle: saline with Tween-80 111 % of control | endpoint: mean survival time, dose: 25.0 mg/kg/injection, schedule: Q01DX009 (ip), vehicle: saline with Tween-80 93 % of control | endpoint: mean survival time, dose: 50.0 mg/kg/injection, schedule: Q01DX009 (ip), vehicle: saline with Tween-80 97 % of control

COC(=O)c1ccccc1NC1OC(CO)C(O)C1O (configuration not stated)
inactive: endpoint: mean survival time, dose: 100.0 mg/kg/injection, schedule: Q01DX001 (ip), vehicle: saline 101 % of control | endpoint: mean survival time, dose: 200.0 mg/kg/injection, schedule: Q01DX001 (ip), vehicle: saline 92 % of control | endpoint: mean survival time, dose: 400.0 mg/kg/injection, schedule: Q01DX001 (ip), vehicle: saline 91 % of control

CC(=O)c1ccc[n+](Cc2ccc([N+](=O)[O-])cc2)c1
inactive: endpoint: mean survival time, dose: 25.0 mg/kg/injection, schedule: Q01DX009 (ip), vehicle: saline 117 % of control | endpoint: mean survival time, dose: 50.0 mg/kg/injection, schedule: Q01DX009 (ip), vehicle: saline 109 % of control | endpoint: mean survival time, dose: 100.0 mg/kg/injection, schedule: Q01DX009 (ip), vehicle: saline 108 % of control

N#CC1c2ccccc2C=NN1C(=O)N(c1ccccc1)c1ccccc1 (configuration not stated)
inactive: endpoint: mean survival time, dose: 100.0 mg/kg/injection, schedule: Q04DX003 (ip), vehicle: other 103 % of control | endpoint: mean survival time, dose: 200.0 mg/kg/injection, schedule: Q04DX003 (ip), vehicle: other 105 % of control | endpoint: mean survival time, dose: 400.0 mg/kg/injection, schedule: Q04DX003 (ip), vehicle: other 105 % of control

CSc1nc(NC2OCC(O)C(O)C2O)c(C(C)=O)c(=O)n1C (configuration not stated)
inactive: endpoint: median survival time, dose: 12.5 mg/kg/injection, schedule: Q01DX005 (ip), vehicle: saline with Tween-80 97 % of control | endpoint: median survival time, dose: 25.0 mg/kg/injection, schedule: Q01DX005 (ip), vehicle: saline with Tween-80 98 % of control | endpoint: median survival time, dose: 50.0 mg/kg/injection, schedule: Q01DX005 (ip), vehicle: saline with Tween-80 96 % of control | endpoint: median survival time, dose: 100.0 mg/kg/injection, schedule: Q01DX005 (ip), vehicle: saline with Tween-80 89 % of control | endpoint: median survival time, dose: 200.0 mg/kg/injection, schedule: Q01DX005 (ip), vehicle: saline with Tween-80 94 % of control

O=P1(Oc2ccccc2)NCC(Br)CO1 (configuration not stated)
inactive: endpoint: mean survival time, dose: 18.8 mg/kg/injection, schedule: Q01DX001 (ip), vehicle: other 98 % of control | endpoint: mean survival time, dose: 31.25 mg/kg/injection, schedule: Q01DX001 (ip), vehicle: other 104 % of control | endpoint: mean survival time, dose: 37.5 mg/kg/injection, schedule: Q01DX001 (ip), vehicle: other 98 % of control | endpoint: mean survival time, dose: 62.5 mg/kg/injection, schedule: Q01DX001 (ip), vehicle: other 107 % of control | endpoint: mean survival time, dose: 75.0 mg/kg/injection, schedule: Q01DX001 (ip), vehicle: other 105 % of control | endpoint: mean survival time, dose: 125.0 mg/kg/injection, schedule: Q01DX001 (ip), vehicle: other 94 % of control | endpoint: mean survival time, dose: 150.0 mg/kg/injection, schedule: Q01DX001 (ip), vehicle: other 113 % of control | endpoint: mean survival time, dose: 250.0 mg/kg/injection, schedule: Q01DX001 (ip), vehicle: other 100 % of control | endpoint: mean survival time, dose: 300.0 mg/kg/injection, schedule: Q01DX001 (ip), vehicle: other 107 % of control | endpoint: mean survival time, dose: 500.0 mg/kg/injection, schedule: Q01DX001 (ip), vehicle: other 100 % of control

CCCCCCCCCCCCNC(=O)Nc1cccc(OC)c1
inactive: [6] 94 % of control | [7] 94 % of control | [8] 87 % of control

Cn1nc(N)c2ncc(-c3ccc(Cl)cc3)nc21
inactive: endpoint: mean survival time, dose: 100.0 mg/kg/injection, schedule: Q04DX003 (ip), vehicle: alcohol 91 % of control | endpoint: mean survival time, dose: 200.0 mg/kg/injection, schedule: Q04DX003 (ip), vehicle: alcohol 89 % of control | endpoint: mean survival time, dose: 400.0 mg/kg/injection, schedule: Q04DX003 (ip), vehicle: alcohol 91 % of control

COc1ccc(-c2nnc(-c3ccc(OC)c(Cl)c3)nn2)cc1Cl
inactive: [9] 93 % of control | endpoint: mean survival time, dose: 200.0 mg/kg/injection, schedule: Q04DX003 (ip), vehicle: saline with Tween-80 86 % of control

CC1CCOC(c2ccccc2)O1 (configuration not stated)
inactive: endpoint: mean survival time, dose: 50.0 mg/kg/injection, schedule: Q04DX002 (ip), vehicle: saline with Tween-80 102 % of control | [6] 94 % of control | [7] 97 % of control

CCC(=O)OCCNc1cc(C(N)=O)c([N+](=O)[O-])cc1[N+](=O)[O-]
inactive: [10] 105 % of control | [11] 92 % of control | [12] 97 % of control

CCOC(=O)C12CCCCC1C/C(=N/NC(N)=O)CC2 (configuration not stated)
inactive: endpoint: mean survival time, dose: 50.0 mg/kg/injection, schedule: Q04DX003 (ip), vehicle: saline with Tween-80 96 % of control | endpoint: mean survival time, dose: 100.0 mg/kg/injection, schedule: Q01DX001 (ip), vehicle: acetone 92 % of control | endpoint: mean survival time, dose: 100.0 mg/kg/injection, schedule: Q04DX003 (ip), vehicle: acetone 96 % of control | [9] 96 % of control | endpoint: mean survival time, dose: 200.0 mg/kg/injection, schedule: Q01DX001 (ip), vehicle: acetone 94 % of control | [11] 88 % of control | endpoint: mean survival time, dose: 200.0 mg/kg/injection, schedule: Q04DX003 (ip), vehicle: acetone 90 % of control | endpoint: mean survival time, dose: 400.0 mg/kg/injection, schedule: Q01DX001 (ip), vehicle: acetone 97 % of control | endpoint: mean survival time, dose: 400.0 mg/kg/injection, schedule: Q04DX003 (ip), vehicle: acetone 90 % of control

NC(=S)N/N=C/c1ccc(Br)cn1
inactive: endpoint: mean survival time, dose: 12.5 mg/kg/injection, schedule: Q04DX002 (ip), vehicle: saline with Tween-80 110 % of control | endpoint: mean survival time, dose: 25.0 mg/kg/injection, schedule: Q04DX002 (ip), vehicle: saline with Tween-80 110 % of control

CCCCCCCCC(Sc1n[nH]c(=O)[nH]c1=O)C(=O)OCC (configuration not stated)
inactive: [1] 101 % of control | [2] 95 % of control | [3] 95 % of control | [4] 100 % of control | [5] 95 % of control

Nc1ncn(C2OC(COC(=O)c3ccccc3)C(OC(=O)c3ccccc3)C2OC(=O)c2ccccc2)n1 (configuration not stated)
inactive: endpoint: median survival time, dose: 8.75 mg/kg/injection, schedule: Q01DX005 (ip), vehicle: distilled water + Tween-80 94 % of control | endpoint: median survival time, dose: 17.5 mg/kg/injection, schedule: Q01DX005 (ip), vehicle: distilled water + Tween-80 91 % of control | endpoint: median survival time, dose: 35.0 mg/kg/injection, schedule: Q01DX005 (ip), vehicle: distilled water + Tween-80 91 % of control | endpoint: median survival time, dose: 70.0 mg/kg/injection, schedule: Q01DX005 (ip), vehicle: distilled water + Tween-80 95 % of control | endpoint: median survival time, dose: 140.0 mg/kg/injection, schedule: Q01DX005 (ip), vehicle: distilled water + Tween-80 91 % of control

Nc1ncnc2c1ncn2CCC(=O)O
inactive: [10] 94 % of control | [6] 105 % of control | [11] 92 % of control | [7] 97 % of control | [12] 90 % of control | [8] 105 % of control

CCCNC(=O)Oc1ccc(C(=O)OCC)cc1
inactive: endpoint: mean survival time, dose: 100.0 mg/kg/injection, schedule: Q04DX003 (ip), vehicle: saline 97 % of control | endpoint: mean survival time, dose: 200.0 mg/kg/injection, schedule: Q04DX003 (ip), vehicle: saline 101 % of control | endpoint: mean survival time, dose: 400.0 mg/kg/injection, schedule: Q04DX003 (ip), vehicle: saline 106 % of control
